Test results reported in patent US20260355328A1, “A complex comprising a cargo and a targeting moiety binding intelectin-1” (Stichting Radboud universitair medisch centrum, priority 2022, published 2026).

How the values were obtained:
ITLN-1 [1] = target: T1, ITLN-1 (Mus musculus, UniProt O88310); assay: ITLN-1 protein expression in mGEnC; format: cell-based; conditions: 10 ng/ml TNFα, FIG. 2B
T1 construct: ITLN-1 siRNA versus control siRNA
Procedure: (§1) Conditionally immortalized mouse glomerular endothelial cells (mGEnC) were cultured as previously described (Rops et al. Kidney Int. 2004; 66 (6): 2193-201). Cells were incubated in their respective medium with 10% FCS containing fluorescein-labelled peptides at 5 μM for 20 minutes at 37 °C. In some cases, cells were activated for 16 hours with 10 ng/ml mouse TNFα (Sigma), or co-incubated with 100 μg/ml Alexa Fluor 633-labeled transferrin (Invitrogen Molecular Probes). Pre-treatment with ITLN-1 or control siPool siRNA (siTools Biotech) was performed according to the manufacturer's protocol. Subsequently, cells were detached with trypsin/EDTA and analysed by flow cytometry on a FACSCalibur Flow cytometer (BD Biosciences). For immunostaining, cells or 5-μm cryosections of mouse kidney were fixed for 10 minutes with 4% paraformaldehyde, and in the indicated cases permeabilized with 0.3% Triton X-100 in PBS. Subsequently, cells and cryosections were stained for 1 hour with anti-intelectin-1 (R&D Systems) or anti-LRP-1 (Abcam) antibodies, and after washing incubated for 1 hour with the appropriate Alexa Fluor-labelled secondary antibody (Invitrogen Molecular Probes). Cells and cryosections were analyzed by confocal laser-Scanning microscopy was performed using a TCS SP5 confocal microscope (Leica Microsystems).

[2] = Biodistribution of full-length lactoferrin, lactoferricin and hLF-6 in LPS-challenged mice (IVIS); format: in vivo; conditions: fluorescent label, i.v., 2 h
Procedure: Lactoferrin and lactoferricin are cloned in an expression plasmid containing the C-terminal Sortase-sequence protein-LPETG-HHHHHH. LPETGHHHHHH is SEQ ID NO: 98. Next, the protein is expressed overnight in E. coli and purified from sonicated bacterial cell lysates by Ni-NTA beads using 400 mM imidazole to elute the proteins. After overnight dialysis, full-length lactoferrin and hLF-6 are labelled by means of a Sortase exchange reaction on the C-terminus with a fluorescent dye (Alexa647 or Cy5.5) for 2 h at 4 °C using a fluorescently labelled donor peptide (formula:biotin-GSSG-LPETG-label or biotin-GSSG-LPETG-PEG40k-label) as substrate GSSGLPETG is SEQ ID NO: 99. Excess donor peptide is removed by means of streptavidin binding of the biotin tag on the N-terminus of the donor peptide. Next, the purified labelled protein/peptide is injected into LPS-challenged mice via intravenous injection in the tail vein. Mice are sacrificed after 2 h, and organs harvested for imaging by IVIS. Biodistribution is quantified for each organ, and relative distribution is shown.

[3] = tested on: proteoglycans on endothelial and epithelial cells; conditions: literature; cited from earlier work
mGEnC [4] = assay: Uptake in multiple cell lines (Table 2): mGEnC; format: cell-based; conditions: fluorescein-labeled peptide, confocal microscopy, mGEnC (mouse)
Procedure: (§2) Conditionally immortalized mouse glomerular endothelial cells (mGEnC) were cultured as previously described (Rops et al. Kidney Int. 2004; 66 (6): 2193-201). HeLa cells were employed as a frequently used model cell line and were cultured in DMEM/F12 medium containing 10% fetal calf serum (FCS). For studying uptake, cells were incubated in their respective medium with 10% FCS containing fluorescein-labelled peptides at the indicated concentrations for 20 minutes at 37 °C. In some cases, cells were activated for 16 hours with 10 ng/ml mouse TNFα (Sigma), or co-incubated with Alexa Fluor 633-labeled transferrin (Invitrogen Molecular Probes). Subsequently, cells were washed with PBS and analysed using confocal laser-scanning microscopy on a TCS SP5 confocal microscope (Leica Microsystems), or detached by trypsin/EDTA and analysed on a FACSCalibur Flow cytometer (BD Biosciences) by measuring 20,000 cells.
as §1, with “Subsequently, cells and cryosections were stained for 1 hour with anti-intelectin-1 (R&D Systems) or anti-LRP-1 (Abcam) antibodies, and after washing incubated for 1 hour with the appropriate Alexa Fluor-labelled secondary antibody (Invitrogen Molecular Probes).” left out

mGEnC treated with TNFα = assay: Uptake by mGEnC after activation with TNFα; format: cell-based; conditions: 10 ng/ml mouse TNFα 16 hours
Procedure: as §2, §1

[5] = Biodistribution of Cy5.5-hLF in LPS-induced inflammation mouse model; format: in vivo, C57BI/6 mice
Procedure: At the start, 8- to 10-week-old C57BI/6 mice (Charles River) received an intraperitoneal injection with either 100 μl of 2 mg/kg LPS in 5% glucose solution, or only 5% glucose solution. After 24 hours, mice were injected with 50 μl of 200 μM Cy5.5-labelled peptide. Assuming a blood volume of 1.2 ml this would theoretically result in a concentration of ~8.5 μM in the circulation. After 4 hours, organs were perfused with phosphate buffer, followed by 4% PFA. Organs were removed and peptide distribution was analysed using the In Vivo Imaging System (IVIS; Perkin Elmer). Organs were then fixed by overnight incubation in 4% PFA, followed by overnight incubation in 30% sucrose. Subsequently, organs were frozen for analysis by confocal laser-Scanning microscopy using a TCS SP5 confocal microscope (Leica Microsystems). Glomerular and tubular regions were selected in microscopical pictures from which the mean fluorescence intensity was determined by ImageJ software.

[6] = Biodistribution of 111In-DOTA-labelled hLF after intravenous injection in healthy mice; format: in vivo, C57BI/6 mice; conditions: i.v.
Procedure: Female and male 10-12-weeks-old C57BI/6 mice (Charles River) were injected via the tail vein with 50 μl of 200 μM 111 In-DOTA-labelled hLF peptide. Assuming a blood volume of 1.2 ml this would theoretically result in a concentration of ~8.5 μM in the circulation. Urine, blood and organs were collected 4 hours after injection, and radioactivity was measured in a gamma-counter. The percentage injected dose per gram of tissue (% ID/gram) was calculated for each tissue along with % of the absorbed dose.

HeLa = assay: Uptake in multiple cell lines (Table 2): HeLa; format: cell-based; conditions: fluorescein-labeled peptide, confocal microscopy, HeLa (human)
Procedure: as §2
as §1, with “Subsequently, cells and cryosections were stained for 1 hour with anti-intelectin-1 (R&D Systems) or anti-LRP-1 (Abcam) antibodies, and after washing incubated for 1 hour with the appropriate Alexa Fluor-labelled secondary antibody (Invitrogen Molecular Probes).” left out

HeLa cells = assay: Uptake of fluorescein-labelled peptides by HeLa cells (flow cytometry); format: cell-based, human; conditions: FIG. 1B
Procedure: as §2

[7] = tested on: heparan sulphate on mGEnC; assay: Peptide uptake by mGEnC after removal of heparan sulphate (heparinases); format: cell-based, mouse; conditions: 5 μM, FIG. 1D
Procedure: (D) Digestion of heparan sulphate from the cell surface has a limited effect on the uptake of lactoferrin-derived peptides (5 μM). Percentage of uptake for heparan sulphate-cleaved compared to undigested cells is shown.
as §2
In order to further substantiate that uptake of hLF occurred by a mechanism different of the one typically observed for CPPs, we addressed the role of heparan sulphate proteoglycans (HSPGs).

Podocytes = assay: Uptake in multiple cell lines (Table 2): Podocytes; format: cell-based; conditions: fluorescein-labeled peptide, confocal microscopy, Podocytes (mouse)
Procedure: as §2
as §1, with “Subsequently, cells and cryosections were stained for 1 hour with anti-intelectin-1 (R&D Systems) or anti-LRP-1 (Abcam) antibodies, and after washing incubated for 1 hour with the appropriate Alexa Fluor-labelled secondary antibody (Invitrogen Molecular Probes).” left out

EOMA = assay: Uptake in multiple cell lines (Table 2): EOMA; format: cell-based; conditions: fluorescein-labeled peptide, confocal microscopy, EOMA (mouse)
[8] = Proteolytic breakdown and serum protein binding of the peptides; format: in vitro ADME
ITLN-1 [9] = target: T1, ITLN-1; assay: Uptake by mGEnC after downregulation of ITLN-1 with siRNA; format: cell-based; conditions: peptides at 5 μM, FIG. 2E
Procedure: as §1

mGEnC [10] = assay: Intracellular localization / co-localization with transferrin in mGEnC (confocal microscopy); format: cell-based, mouse; conditions: FIG. 2C
Procedure: as §2
Conditionally immortalized mouse glomerular endothelial cells (mGEnC) were cultured as previously described (Rops et al. Kidney Int. 2004; 66 (6): 2193-201). […] Subsequently, cells were detached with trypsin/EDTA and analysed by flow cytometry on a FACSCalibur Flow cytometer (BD Biosciences). […] Cells and cryosections were analyzed by confocal laser-Scanning microscopy was performed using a TCS SP5 confocal microscope (Leica Microsystems).

[11] = tested on: mouse glomerular endothelial cells (mGEnC); assay: Uptake of fluorescein-labelled peptides by mGEnC (flow cytometry); format: cell-based; conditions: different concentrations, 20 minutes at 37 °C, FIG. 1A
Procedure: as §2

[12] = tested on: heparan sulphate proteoglycans (HSPGs); conditions: HeLa cells, literature; cited from earlier work
hGEnC = assay: Uptake in multiple cell lines (Table 2): hGEnC; format: cell-based; conditions: fluorescein-labeled peptide, confocal microscopy, hGEnC (human)
HUVEC = assay: Uptake in multiple cell lines (Table 2): HUVEC; format: cell-based; conditions: fluorescein-labeled peptide, confocal microscopy, HUVEC (human)

T1 sequence (O88310 19-298): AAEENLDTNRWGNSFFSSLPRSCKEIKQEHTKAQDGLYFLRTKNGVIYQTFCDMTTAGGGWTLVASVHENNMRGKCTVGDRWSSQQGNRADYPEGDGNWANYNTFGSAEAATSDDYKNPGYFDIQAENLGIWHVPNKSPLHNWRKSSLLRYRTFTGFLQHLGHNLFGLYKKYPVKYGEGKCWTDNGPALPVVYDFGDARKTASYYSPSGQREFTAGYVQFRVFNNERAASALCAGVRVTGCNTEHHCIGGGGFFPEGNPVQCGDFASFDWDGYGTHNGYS

TNFα
ITLN-1 expression after activation (ITLN-1 [1]): augmented ITLN-1 expression

lactoferricin
bio-distribution [2]: accumulation predominantly in liver and spleen and less in kidney, brain and intestine
binding to proteoglycans [3]: bind to proteoglycans on endothelial and epithelial cells

KCFQWQRNMRKVRGPPVSCIKR [hLF, lactoferrin-derived 22-amino acid peptide]
Uptake (Table 2) (mGEnC [4]): High
effect of TNFα treatment on uptake (mGEnC treated with TNFα): increased uptake
increase of uptake after TNFα treatment (mGEnC treated with TNFα; 5 μM, FIG. 1E): 50-100%
signal in spleen, heart, eyes, brain and lymph nodes ([5]; IVIS, LPS-treated and non-treated mice): virtually undetectable
tubular uptake of non-conjugated / free peptide ([5]; i.v. injection in mice): tubular uptake
biodistribution (main organ) ([6]; 111In-DOTA-labelled, 4 hours, FIG. 3A): predominantly located in the kidney
concentration in the blood after 4 hours [6]: < 1%
absorbed dose in kidney and liver combined of total dose in all the organs ([6]; 4 hours): more than 90%
distribution to other organs including intestines, skin and heart, fold lower ([6]; 4 hours): more than 20 fold
distribution to the liver, fold lower than kidney ([6]; 4 hours): approximately 2 fold
kidney targeting, female versus male mice ([6]; 4 hours): No significant differences
peptide concentration in spleen and lungs, fold lower than kidney ([6]; 4 hours): 5-10 fold
Uptake (Table 2) (HeLa): High
uptake in HeLa cells (HeLa cells): show uptake
decrease in uptake after removal of heparan sulphate [7]: ~ 20%
Uptake (Table 2) (Podocytes): High
Uptake (Table 2) (EOMA): High
binding to serum proteins as reason for preferential uptake by mGEnC [8]: not due to a difference in proteolytic breakdown of the peptides before uptake, or a difference in the binding to serum proteins
proteolytic breakdown as reason for preferential uptake by mGEnC ([8]; before uptake): not due to a difference in proteolytic breakdown
uptake after ITLN-1 siRNA compared to control siRNA (ITLN-1 [9]): reduced uptake
co-localization with fluorescently-labelled transferrin (mGEnC [10]): co-localized completely
uptake in mGEnC [11]: much more efficient dose-dependent uptake
dependence of uptake on HSPG [12]: depends on the presence of HSPG
Uptake (Table 2) (hGEnC): High
Uptake (Table 2) (HUVEC): High
